Laboratory results taken from patent US20110173718A1, “HERBICIDE TOLERANT PLANTS” (SYNGENTA CROP PROTECTION, INC., priority 2008, published 2011).

Test system: weeds
Experiment: Glasshouse weed control by HST/HPPD (mesotrione) mixtures, pre-emergence
Format: in vivo
Conditions: for colby: Colby synergy score; for % Damage at 14 DAA, 1 g ai ha^−1 mesotrione / % Damage at 14 DAA, no-mesotrione: N = 3
Description: Weed seeds are planted out in trays containing suitable soil (for example 50% peat, 50% John Innes soil no 3) and grown in the glass house conditions under 24-27° C. day; 18-21° C. night and approximately a 14 h (or longer in UK summer) photoperiod. Humidity is ˜65% and light levels up to 2000 μmol/m^2 at bench level. Trays are sprayed with test chemicals dissolved in water with 0.2-0.25% X-77 surfactant and sprayed from a boom on a suitable track sprayer moving at about 2 mph in a suitable track sprayer (for example a DeVries spray chamber with the nozzle about 2 inches from the plant tops). Spray volume is suitably 500-1000 l/ha. Sprays are carried out both pre-emergence and over small plants at about 7-12 d post-emergence
Plants are assessed 14 DAT and herbicidal damage is scored on a scale from 0 to 100%. The HST inhibitor compound 2.30 (designated compound A in table 16 and 17), haloxydine (compound 1.1) and compound 2.13 (designated compound AE in tables 16 and 17) are sprayed at rates between 0 and 500 g/ha.

[1] = ALOMY, 16 g/ha + mesotrione 1 g ai/ha
[2] = ALOMY, 31 g/ha + mesotrione 1 g ai/ha
[3] = ALOMY, 63 g/ha + mesotrione 1 g ai/ha
[4] = ALOMY, 125 g/ha + mesotrione 1 g ai/ha
[5] = ALOMY, 250 g/ha + mesotrione 1 g ai/ha
[6] = ALOMY, 500 g/ha + mesotrione 1 g ai/ha
[7] = AMARE, 16 g/ha + mesotrione 1 g ai/ha
[8] = AMARE, 31 g/ha + mesotrione 1 g ai/ha
[9] = AMARE, 63 g/ha + mesotrione 1 g ai/ha
[10] = AMARE, 125 g/ha + mesotrione 1 g ai/ha
[11] = AMARE, 250 g/ha + mesotrione 1 g ai/ha
[12] = AMARE, 500 g/ha + mesotrione 1 g ai/ha
[13] = ECHCG, 16 g/ha + mesotrione 1 g ai/ha
[14] = ECHCG, 31 g/ha + mesotrione 1 g ai/ha
[15] = ECHCG, 63 g/ha + mesotrione 1 g ai/ha
[16] = ECHCG, 125 g/ha + mesotrione 1 g ai/ha
[17] = ECHCG, 250 g/ha + mesotrione 1 g ai/ha
[18] = ECHCG, 500 g/ha + mesotrione 1 g ai/ha
[19] = IPOHE, 16 g/ha + mesotrione 1 g ai/ha
[20] = IPOHE, 31 g/ha + mesotrione 1 g ai/ha
[21] = IPOHE, 63 g/ha + mesotrione 1 g ai/ha
[22] = IPOHE, 125 g/ha + mesotrione 1 g ai/ha
[23] = IPOHE, 250 g/ha + mesotrione 1 g ai/ha
[24] = IPOHE, 500 g/ha + mesotrione 1 g ai/ha
[25] = SETFA, 16 g/ha + mesotrione 1 g ai/ha
[26] = SETFA, 31 g/ha + mesotrione 1 g ai/ha
[27] = SETFA, 63 g/ha + mesotrione 1 g ai/ha
[28] = SETFA, 125 g/ha + mesotrione 1 g ai/ha
[29] = SETFA, 250 g/ha + mesotrione 1 g ai/ha
[30] = SETFA, 500 g/ha + mesotrione 1 g ai/ha
[31] = SOLNI, 16 g/ha + mesotrione 1 g ai/ha
[32] = SOLNI, 31 g/ha + mesotrione 1 g ai/ha
[33] = SOLNI, 63 g/ha + mesotrione 1 g ai/ha
[34] = SOLNI, 125 g/ha + mesotrione 1 g ai/ha
[35] = SOLNI, 250 g/ha + mesotrione 1 g ai/ha
[36] = SOLNI, 500 g/ha + mesotrione 1 g ai/ha

Q: Which colby [1] does the source give for O=c1c(Cl)c(F)[nH]c(F)c1Cl [Haloxidine] here?
A: 5%

Q: What about the “% Damage at 14 DAA, 1 g ai ha^−1 mesotrione” value [1] of the same compound?
A: 8%

Q: And the “% Damage at 14 DAA, no-mesotrione” value (ALOMY, 16 g/ha)?
A: 3%

Q: And the colby [2]?
A: 12%

Q: And the “% Damage at 14 DAA, 1 g ai ha^−1 mesotrione” value [2]?
A: 25%

Q: What about the “% Damage at 14 DAA, no-mesotrione” value (ALOMY, 31 g/ha) of the same compound?
A: 13%

Q: And the colby [3]?
A: 8%

Q: What about the “% Damage at 14 DAA, 1 g ai ha^−1 mesotrione” value [3] of the same compound?
A: 50%

Q: What about the “% Damage at 14 DAA, no-mesotrione” value (ALOMY, 63 g/ha) of the same compound?
A: 42%

Q: What about the colby [4] of the same compound?
A: 10%

Q: And the “% Damage at 14 DAA, 1 g ai ha^−1 mesotrione” value [4]?
A: 77%

Q: What about the “% Damage at 14 DAA, no-mesotrione” value (ALOMY, 125 g/ha) of the same compound?
A: 67%

Q: What about the colby [5] of the same compound?
A: −3%

Q: And the “% Damage at 14 DAA, 1 g ai ha^−1 mesotrione” value [5]?
A: 78%

Q: What about the “% Damage at 14 DAA, no-mesotrione” value (ALOMY, 250 g/ha) of the same compound?
A: 82%

Q: And the colby [6]?
A: −2%

Q: What about the “% Damage at 14 DAA, 1 g ai ha^−1 mesotrione” value [6] of the same compound?
A: 83%

Q: And the “% Damage at 14 DAA, no-mesotrione” value (ALOMY, 500 g/ha)?
A: 85%

Q: And the colby [7]?
A: 2%

Q: And the “% Damage at 14 DAA, 1 g ai ha^−1 mesotrione” value [7]?
A: 42%

Q: And the “% Damage at 14 DAA, no-mesotrione” value (AMARE, 16 g/ha)?
A: 38%

Q: What about the colby [8] of the same compound?
A: 1%

Q: What about the “% Damage at 14 DAA, 1 g ai ha^−1 mesotrione” value [8] of the same compound?
A: 75%

Q: What about the “% Damage at 14 DAA, no-mesotrione” value (AMARE, 31 g/ha) of the same compound?
A: 73%

Q: What about the colby [9] of the same compound?
A: 5%

Q: And the “% Damage at 14 DAA, 1 g ai ha^−1 mesotrione” value [9]?
A: 93%

Q: And the “% Damage at 14 DAA, no-mesotrione” value (AMARE, 63 g/ha)?
A: 88%

Q: And the colby [10]?
A: 0%

Q: And the “% Damage at 14 DAA, 1 g ai ha^−1 mesotrione” value [10]?
A: 100%

Q: What about the “% Damage at 14 DAA, no-mesotrione” value (AMARE, 125 g/ha) of the same compound?
A: 100%

Q: What about the colby [11] of the same compound?
A: 0%

Q: What about the “% Damage at 14 DAA, 1 g ai ha^−1 mesotrione” value [11] of the same compound?
A: 100%

Q: What about the “% Damage at 14 DAA, no-mesotrione” value (AMARE, 250 g/ha) of the same compound?
A: 100%

Q: What about the colby [12] of the same compound?
A: 0%

Q: And the “% Damage at 14 DAA, 1 g ai ha^−1 mesotrione” value [12]?
A: 100%

Q: What about the “% Damage at 14 DAA, no-mesotrione” value (AMARE, 500 g/ha) of the same compound?
A: 100%

Q: What about the colby [13] of the same compound?
A: 7%

Q: What about the “% Damage at 14 DAA, 1 g ai ha^−1 mesotrione” value [13] of the same compound?
A: 20%

Q: And the “% Damage at 14 DAA, no-mesotrione” value (ECHCG, 16 g/ha)?
A: 13%

Q: And the colby [14]?
A: −2%

Q: What about the “% Damage at 14 DAA, 1 g ai ha^−1 mesotrione” value [14] of the same compound?
A: 23%

Q: And the “% Damage at 14 DAA, no-mesotrione” value (ECHCG, 31 g/ha)?
A: 25%

Q: And the colby [15]?
A: 13%

Q: And the “% Damage at 14 DAA, 1 g ai ha^−1 mesotrione” value [15]?
A: 53%

Q: And the “% Damage at 14 DAA, no-mesotrione” value (ECHCG, 63 g/ha)?
A: 40%

Q: What about the colby [16] of the same compound?
A: 5%

Q: And the “% Damage at 14 DAA, 1 g ai ha^−1 mesotrione” value [16]?
A: 78%

Q: And the “% Damage at 14 DAA, no-mesotrione” value (ECHCG, 125 g/ha)?
A: 73%

Q: And the colby [17]?
A: −8%

Q: And the “% Damage at 14 DAA, 1 g ai ha^−1 mesotrione” value [17]?
A: 83%

Q: What about the “% Damage at 14 DAA, no-mesotrione” value (ECHCG, 250 g/ha) of the same compound?
A: 92%

Q: And the colby [18]?
A: 7%

Q: And the “% Damage at 14 DAA, 1 g ai ha^−1 mesotrione” value [18]?
A: 95%

Q: What about the “% Damage at 14 DAA, no-mesotrione” value (ECHCG, 500 g/ha) of the same compound?
A: 88%

Q: What about the colby [19] of the same compound?
A: 0%

Q: And the “% Damage at 14 DAA, 1 g ai ha^−1 mesotrione” value [19]?
A: 0%

Q: And the “% Damage at 14 DAA, no-mesotrione” value (IPOHE, 16 g/ha)?
A: 0%

Q: And the colby [20]?
A: 0%

Q: And the “% Damage at 14 DAA, 1 g ai ha^−1 mesotrione” value [20]?
A: 0%

Q: And the “% Damage at 14 DAA, no-mesotrione” value (IPOHE, 31 g/ha)?
A: 0%

Q: And the colby [21]?
A: −7%

Q: What about the “% Damage at 14 DAA, 1 g ai ha^−1 mesotrione” value [21] of the same compound?
A: 8%

Q: And the “% Damage at 14 DAA, no-mesotrione” value (IPOHE, 63 g/ha)?
A: 15%

Q: And the colby [22]?
A: −10%

Q: What about the “% Damage at 14 DAA, 1 g ai ha^−1 mesotrione” value [22] of the same compound?
A: 52%

Q: What about the “% Damage at 14 DAA, no-mesotrione” value (IPOHE, 125 g/ha) of the same compound?
A: 62%

Q: What about the colby [23] of the same compound?
A: −13%

Q: And the “% Damage at 14 DAA, 1 g ai ha^−1 mesotrione” value [23]?
A: 67%

Q: What about the “% Damage at 14 DAA, no-mesotrione” value (IPOHE, 250 g/ha) of the same compound?
A: 80%

Q: What about the colby [24] of the same compound?
A: 3%

Q: And the “% Damage at 14 DAA, 1 g ai ha^−1 mesotrione” value [24]?
A: 87%

Q: And the “% Damage at 14 DAA, no-mesotrione” value (IPOHE, 500 g/ha)?
A: 83%

Q: What about the colby [25] of the same compound?
A: 10%

Q: And the “% Damage at 14 DAA, 1 g ai ha^−1 mesotrione” value [25]?
A: 10%

Q: What about the “% Damage at 14 DAA, no-mesotrione” value (SETFA, 16 g/ha) of the same compound?
A: 0%

Q: What about the colby [26] of the same compound?
A: 7%

Q: What about the “% Damage at 14 DAA, 1 g ai ha^−1 mesotrione” value [26] of the same compound?
A: 32%

Q: And the “% Damage at 14 DAA, no-mesotrione” value (SETFA, 31 g/ha)?
A: 25%

Q: What about the colby [27] of the same compound?
A: 8%

Q: What about the “% Damage at 14 DAA, 1 g ai ha^−1 mesotrione” value [27] of the same compound?
A: 58%

Q: And the “% Damage at 14 DAA, no-mesotrione” value (SETFA, 63 g/ha)?
A: 50%

Q: What about the colby [28] of the same compound?
A: 2%

Q: What about the “% Damage at 14 DAA, 1 g ai ha^−1 mesotrione” value [28] of the same compound?
A: 90%

Q: What about the “% Damage at 14 DAA, no-mesotrione” value (SETFA, 125 g/ha) of the same compound?
A: 88%

Q: And the colby [29]?
A: 0%

Q: And the “% Damage at 14 DAA, 1 g ai ha^−1 mesotrione” value [29]?
A: 95%

Q: And the “% Damage at 14 DAA, no-mesotrione” value (SETFA, 250 g/ha)?
A: 95%

Q: And the colby [30]?
A: 2%

Q: What about the “% Damage at 14 DAA, 1 g ai ha^−1 mesotrione” value [30] of the same compound?
A: 98%

Q: What about the “% Damage at 14 DAA, no-mesotrione” value (SETFA, 500 g/ha) of the same compound?
A: 97%

Q: And the colby [31]?
A: 30%

Q: And the “% Damage at 14 DAA, 1 g ai ha^−1 mesotrione” value [31]?
A: 47%

Q: What about the “% Damage at 14 DAA, no-mesotrione” value (SOLNI, 16 g/ha) of the same compound?
A: 0%

Q: What about the colby [32] of the same compound?
A: 21%

Q: What about the “% Damage at 14 DAA, 1 g ai ha^−1 mesotrione” value [32] of the same compound?
A: 60%

Q: And the “% Damage at 14 DAA, no-mesotrione” value (SOLNI, 31 g/ha)?
A: 27%

Q: What about the colby [33] of the same compound?
A: 18%

Q: And the “% Damage at 14 DAA, 1 g ai ha^−1 mesotrione” value [33]?
A: 75%

Q: And the “% Damage at 14 DAA, no-mesotrione” value (SOLNI, 63 g/ha)?
A: 48%

Q: And the colby [34]?
A: 3%

Q: What about the “% Damage at 14 DAA, 1 g ai ha^−1 mesotrione” value [34] of the same compound?
A: 92%

Q: And the “% Damage at 14 DAA, no-mesotrione” value (SOLNI, 125 g/ha)?
A: 87%

Q: And the colby [35]?
A: 4%

Q: What about the “% Damage at 14 DAA, 1 g ai ha^−1 mesotrione” value [35] of the same compound?
A: 100%

Q: And the “% Damage at 14 DAA, no-mesotrione” value (SOLNI, 250 g/ha)?
A: 95%

Q: What about the colby [36] of the same compound?
A: 0%

Q: And the “% Damage at 14 DAA, 1 g ai ha^−1 mesotrione” value [36]?
A: 100%

Q: And the “% Damage at 14 DAA, no-mesotrione” value (SOLNI, 500 g/ha)?
A: 100%
